Activity calls are given as the source filed them.
How the values were obtained:
DOHH-2 [1] = test: Induction of autophagy in human DOHH-2 cells assessed as change in transformation of LC3B1 to LC3B2 expression at 8 uM measured after 4 to 24 hrs by Western blot analysis; assay type: functional, cell-based; settings: time 4-24 hrs
[2] = target: T1, Thioredoxin-dependent peroxide reductase, mitochondrial (Homo sapiens) (UniProt P30048); test: Binding affinity to PRDX3 in human DOHH-2 cells by MS analysis; assay type: cell-based
T1 sequence (whole entry): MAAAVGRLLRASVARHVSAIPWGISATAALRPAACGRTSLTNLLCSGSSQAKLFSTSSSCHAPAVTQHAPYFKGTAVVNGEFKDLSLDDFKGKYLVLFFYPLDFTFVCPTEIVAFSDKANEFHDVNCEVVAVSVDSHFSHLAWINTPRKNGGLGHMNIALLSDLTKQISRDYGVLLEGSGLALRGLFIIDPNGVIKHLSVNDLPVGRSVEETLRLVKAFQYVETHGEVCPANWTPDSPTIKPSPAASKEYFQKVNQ

[3] = target: Elongation factor 2 (Homo sapiens) (UniProt P13639); test: Binding affinity to elongation factor 2 in human DOHH-2 cells measured after 6 hrs by pull-down assay; assay type: cell-based; settings: DDE = dose-dependent effect
[4] = target: T2, Peroxiredoxin-5, mitochondrial (Homo sapiens) (UniProt P30044); test: Binding affinity to PRDX5 in human DOHH-2 cells by MS analysis; assay type: cell-based
T2 sequence (whole entry): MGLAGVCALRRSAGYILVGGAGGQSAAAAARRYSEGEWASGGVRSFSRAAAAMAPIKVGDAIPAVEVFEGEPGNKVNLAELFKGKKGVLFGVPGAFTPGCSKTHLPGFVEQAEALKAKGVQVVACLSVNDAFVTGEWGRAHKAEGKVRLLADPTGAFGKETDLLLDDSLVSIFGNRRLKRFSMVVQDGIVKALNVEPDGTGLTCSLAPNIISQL

[5] = target: Elongation factor 2 (Homo sapiens) (UniProt P13639); test: Binding affinity to elongation factor 2 in human MDA-MB-453 cells measured after 6 hrs by pull-down assay; assay type: cell-based; settings: dose <= 20.0 µM, DDE = dose-dependent effect
[6] = target: Coronin-1A (Homo sapiens) (UniProt P31146); test: Binding affinity to coronin-1A in human MDA-MB-453 cells measured after 6 hrs by pull-down assay; assay type: cell-based; settings: dose <= 20.0 µM, DDE = dose-dependent effect
Sequence of Coronin-1A (Homo sapiens) (P31146 whole entry): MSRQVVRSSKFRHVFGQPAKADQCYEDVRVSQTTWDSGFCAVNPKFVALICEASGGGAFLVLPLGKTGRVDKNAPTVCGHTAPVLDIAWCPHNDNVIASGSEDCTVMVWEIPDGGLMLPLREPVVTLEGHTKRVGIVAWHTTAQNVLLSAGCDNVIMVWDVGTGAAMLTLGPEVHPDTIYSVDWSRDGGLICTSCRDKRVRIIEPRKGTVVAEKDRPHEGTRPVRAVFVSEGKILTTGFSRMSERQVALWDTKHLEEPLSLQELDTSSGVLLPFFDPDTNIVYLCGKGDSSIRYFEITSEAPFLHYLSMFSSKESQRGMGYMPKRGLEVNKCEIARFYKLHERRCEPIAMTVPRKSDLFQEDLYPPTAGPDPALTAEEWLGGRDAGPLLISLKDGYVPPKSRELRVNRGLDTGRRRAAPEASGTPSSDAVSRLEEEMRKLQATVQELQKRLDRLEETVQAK

[7] = target: T3, Peroxiredoxin-6 (Homo sapiens) (UniProt P30041); test: Binding affinity to PRDX6 in human DOHH-2 cells measured after 6 hrs by pull-down assay; assay type: cell-based; settings: DDE = dose-dependent effect
T3 sequence (whole entry): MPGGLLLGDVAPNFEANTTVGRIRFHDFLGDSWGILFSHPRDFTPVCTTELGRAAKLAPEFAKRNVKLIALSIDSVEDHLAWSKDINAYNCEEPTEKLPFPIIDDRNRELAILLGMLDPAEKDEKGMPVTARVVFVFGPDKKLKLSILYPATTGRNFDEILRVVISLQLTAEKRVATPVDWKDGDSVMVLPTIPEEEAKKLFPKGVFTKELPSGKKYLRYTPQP

[8] = target: T2, Peroxiredoxin-5, mitochondrial (Homo sapiens); test: Binding affinity to PRDX5 in human DOHH-2 cells measured after 6 hrs by pull-down assay; assay type: cell-based; settings: DDE = dose-dependent effect
[9] = target: T4, Glutathione S-transferase omega-1 (Homo sapiens) (UniProt P78417); test: Binding affinity to GSTO1 in human MDA-MB-453 cells measured after 6 hrs by pull-down assay; assay type: cell-based; settings: dose <= 20.0 µM, DDE = dose-dependent effect
T4 sequence (whole entry): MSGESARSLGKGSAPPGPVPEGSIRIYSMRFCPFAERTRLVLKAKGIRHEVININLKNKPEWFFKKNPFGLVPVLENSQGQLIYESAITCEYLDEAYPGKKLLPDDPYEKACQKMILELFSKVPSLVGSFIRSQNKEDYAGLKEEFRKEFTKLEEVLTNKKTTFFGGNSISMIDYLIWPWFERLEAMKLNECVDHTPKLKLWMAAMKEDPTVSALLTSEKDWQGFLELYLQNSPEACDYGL

[10] = target: Glutathione S-transferase P (Homo sapiens) (UniProt P09211); test: Binding affinity to GSTP1 in human MDA-MB-453 cells measured after 6 hrs by pull-down assay; assay type: cell-based; settings: dose <= 20.0 µM, DDE = dose-dependent effect
Sequence of Glutathione S-transferase P (Homo sapiens) (P09211 2-210 limits assumed): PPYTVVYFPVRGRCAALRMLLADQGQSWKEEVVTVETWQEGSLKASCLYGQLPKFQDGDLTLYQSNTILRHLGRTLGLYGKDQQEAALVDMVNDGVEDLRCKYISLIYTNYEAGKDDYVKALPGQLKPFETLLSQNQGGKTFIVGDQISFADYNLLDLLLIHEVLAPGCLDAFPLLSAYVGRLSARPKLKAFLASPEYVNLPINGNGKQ

[11] = target: T5, Protein disulfide-isomerase A4 (Homo sapiens) (UniProt P13667); test: Binding affinity to PDIA4 in human DOHH-2 cells by MS analysis; assay type: cell-based
T5 sequence (whole entry): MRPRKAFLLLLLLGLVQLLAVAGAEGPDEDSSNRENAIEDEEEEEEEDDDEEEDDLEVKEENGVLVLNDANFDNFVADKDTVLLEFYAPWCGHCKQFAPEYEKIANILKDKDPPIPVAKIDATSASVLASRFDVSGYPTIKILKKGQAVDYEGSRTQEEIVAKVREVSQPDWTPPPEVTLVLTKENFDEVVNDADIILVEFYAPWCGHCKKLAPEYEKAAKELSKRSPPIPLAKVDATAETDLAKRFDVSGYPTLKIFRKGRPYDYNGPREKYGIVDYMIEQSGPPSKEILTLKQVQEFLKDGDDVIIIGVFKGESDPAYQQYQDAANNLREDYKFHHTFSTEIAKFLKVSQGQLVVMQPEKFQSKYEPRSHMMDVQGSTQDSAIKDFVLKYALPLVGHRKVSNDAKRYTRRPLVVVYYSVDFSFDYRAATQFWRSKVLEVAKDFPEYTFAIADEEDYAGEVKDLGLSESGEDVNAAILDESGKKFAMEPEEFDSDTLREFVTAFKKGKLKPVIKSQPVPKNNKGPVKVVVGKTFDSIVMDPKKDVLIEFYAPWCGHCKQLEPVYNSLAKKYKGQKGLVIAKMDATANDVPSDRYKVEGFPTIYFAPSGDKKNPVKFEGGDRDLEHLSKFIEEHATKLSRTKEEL

[12] = target: T6, Protein disulfide-isomerase A3 (Homo sapiens) (UniProt P30101); test: Binding affinity to PDIA3 in human MDA-MB-453 cells measured after 6 hrs by pull-down assay; assay type: cell-based; settings: dose <= 20.0 µM, DDE = dose-dependent effect
T6 sequence (whole entry): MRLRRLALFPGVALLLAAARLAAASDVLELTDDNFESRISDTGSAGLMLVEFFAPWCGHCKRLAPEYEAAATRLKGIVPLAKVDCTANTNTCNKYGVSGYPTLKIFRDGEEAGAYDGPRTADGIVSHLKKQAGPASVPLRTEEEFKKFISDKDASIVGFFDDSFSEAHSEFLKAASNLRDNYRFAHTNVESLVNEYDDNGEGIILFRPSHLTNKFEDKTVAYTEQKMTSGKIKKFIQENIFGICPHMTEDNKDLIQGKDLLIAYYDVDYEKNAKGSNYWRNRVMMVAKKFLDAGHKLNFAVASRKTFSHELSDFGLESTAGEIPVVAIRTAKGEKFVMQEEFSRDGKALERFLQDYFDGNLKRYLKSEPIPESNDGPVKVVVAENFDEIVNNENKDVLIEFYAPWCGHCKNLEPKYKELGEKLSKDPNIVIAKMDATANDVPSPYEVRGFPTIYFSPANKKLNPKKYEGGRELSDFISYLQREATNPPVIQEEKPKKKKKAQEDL

DOHH-2 [13] = test: Induction of apoptosis in human DOHH-2 cells assessed as increase in cleaved caspase-3 expression at 8 uM measured after 4 to 24 hrs by Western blot analysis; assay type: functional, cell-based; settings: time 4-24 hrs

Measured: Activity

C#Cc1cccc(C#CS(N)(=O)=O)c1
active: DOHH-2 [1] | [2] | [3] Dde | [4] | [5] Dde | [6] Dde | [7] Dde | [8] Dde | [9] Dde | [10] Dde | [11] | [12] Dde | DOHH-2 [13]

Reference: ChEMBL document CHEMBL5143564, “PES derivative PESA is a potent tool to globally profile cellular targets of PES” (Bioorg Med Chem Lett, 2022)
